The test system of the test is urethra. The test can be described thus: Intraluminal pressure of the urethra in the anaesthetised rabbit. Type of test: in vivo. Particulars: i.v.; for Contraction of the urethra / Duration of effect (contraction of the urethra): female Japanese white rabbits, urethane anaesthesia, phenylephrine 30 μg/kg vs Example 2 10 μg/kg, phenylephrine = 100. Here is the method: Female Japanese white rabbits (weighing 3.0 to 3.5 kg) are anaesthetised with urethane (1 g/kg i.p.). A polyethylene cannula is inserted in the urinary bladder by means of a small incision. The changes in the intraluminal pressure are recorded by means of balloon in the urethra which contains about 1.5 ml of water at 37° C.

[1] abbreviates: rabbit, 10 μg/kg Example 2 vs 30 μg/kg phenylephrine, factor.

Each structure is given as a SMILES string.

`Cc1c(N(C)C)ccc(Br)c1N=C1NCCN1` [Example 2, 2-(6-Bromo-3-dimethylamino-2-methylphenylimino)imidazolidine]: the “Contraction of the urethra” value turned out to be 273% and the “Duration of effect (contraction of the urethra)” value is 430%. In addition, under setting [1], the “duration of effect (contraction of the urethra), longer by a factor compared with phenylephrine” value is 4.3 and the “potency with regard to the contraction of the urethra, higher by a factor compared with phenylephrine” value is reported as 2.73.

Consider `CNC[C@H](O)c1cccc(O)c1` [Phenylephrine, phenylephrine], for which the “Contraction of the urethra” value was found to be 100% and the “Duration of effect (contraction of the urethra)” value was found to be 100%.

The values are drawn from US7019021B2, “Compounds and methods for treating urinary incontinence” (Boehringer Ingelheim Pharma GmbH & Co. KG, priority 1995, dated 2006).
